Measured values reported in patent US20100041691A1, “PHARMACEUTICAL COMPOSITIONS COMPRISING COMBINATIONS OF AN AMPA/KAINATE ANTAGONISTIC COMPOUND AND AN INHIBITOR OF A MULTIDRUG RESISTANCE PROTEIN” (NeuroSearch A/S, priority 2006, published 2010).
Like-named read-outs stand apart in the source and are kept apart here.

What was measured:
P-gp = details: inhibition of P-gp in phenytoin-treated chronic epileptic rats; cited from earlier work
[1] = test system: tonic seizures induced by 26 mA corneal stimulation; details: Compound A i.v. 60 minutes before electroshock, female NMRI mice
Excerpt: After administration of vehicle or test substance female NMRI mice were stimulated with 26 mA for 0.3 seconds, using corneal stimulation (Rodent Shocker, Hugo Sachs Electronic, Germany). In presence of tonic seizure the mice was labeled 0% protection and if no tonic seizure was detected the mice was labeled 100% protection. Results were plotted as a function of logarithmic dose and fitted to a sigmoid-dose response (with variable slope (GraphPad Prism, ver. 4) and used to estimate the dose that would give a 50% protection from seizures (N=6/group).
Vehicle (5% chremophor) was dosed p.o.

[2] = 10 mg/kg i.v. with Verapamil I.C.V. versus Compound A only; mice; 5-60 minutes
Description: 16 NMRI-mice were allocated into 4 groups. The animals were anesthetised in 1.5% Isuflurane and 20% O2. […] At different time point (5 minutes, 15 minutes, 30 minutes and 60 minutes) after dosing the animals were killed by decapitation and blood and brain were collected. The EDTA stabilised blood was centrifugation at 4000 rpm for 20 minutes at 4° C. Plasma and brain samples were stored at −20° C. pending analysis.
Plasma and brain samples were analysed using LC-MS/MS (Quattro Ultimo Platinum with Acquility solvent and sample manager, Waters) in positive electrospray 10 ionisation and multiple reaction monitoring mode. The analytical column was a UPLC Acquility BEH C18 (1.7 μm) 1.0×50 mm (Waters) with gradient elution at a 0.13 ml/min flow rate. The initial mobile phase was 20% methanol/80% formic acid changed to 90% methanol/10% formic acid over a time period of 1.7 min.
Samples were centrifuged for 25 minutes at 5° C., 14000 rpm and 3 μl of the supernatants were injected onto the LC-column.
Brain tissue (0.1 g) was weighed out on top of a tube containing 0.8 ml bead (1.0 mm Zirconia from BioSpec Products). […]
Samples were quantified based on standard curves (linear, 1/×weighting), prepared in plasma and brain tissue respectively.

SMILES | seizure control (P-gp) | ED50, protection against tonic seizures ([1]; pretreatment with Tariquidar 24 mg/kg p.o. 120 minutes before) [mg/kg] | ED50, protection against tonic seizures ([1]; with vehicle (5% chremophor p.o.)) [mg/kg] | brain exposure of Compound A [2]
COc1cc2c(cc1OC)CN(CCc1ccc(NC(=O)c3cc(OC)c(OC)cc3NC(=O)c3cnc4ccccc4c3)cc1)CC2 [Tariquidar] | improves seizure control | – | – | –
CN1CCc2c(-c3ccc(S(=O)(=O)N(C)C)cc3)cc3c(c2C1)NC(=O)C3=NOC(CCO)C(=O)O (stereo not shown) [Compound A, 8-Methyl-5-(4-(N,N-dimethyl-sulfamoyl)phenyl)-6,7,8,9-tetrahydro-1H-pyrrolo[3,2h]-isoqinoline-2,3-dione-3-O-(4-hydroxybutyric acid-2-yl)oxime] | – | 24 | 31.5 | increase in brain exposure
